Reference: patent publication US5567692A, “9-[(substituted glycyl) amido)]-6-demethyl-6-deoxytetracyclines” (priority 1995, dated 1996)
≈ marks a conversion by molar mass, not a printed value. Counter-ions that a name gives are not always drawn. Like-named read-outs stand apart in the source and are kept apart here.

Key:
Format in all cases: cell-based
S. marcescens FPOR 8733 = experiment: MIC, agar dilution; details: Serratia marcescens, FPOR8733, 18 h
S. aureus IVES 2943 = experiment: MIC, agar dilution; details: Staphylococcus aureus, IVES2943, 18 h
[1] = system: S. aureus UBMS 90-2 Tet M; experiment: microbe, parasite or virus in culture; details: Staphylococcus aureus, UBMS902TETM, 18 h
[2] = system: X. maltophilia NEMC 87210; experiment: MIC, agar dilution; details: Stenotrophomonas maltophilia, NEMC87210, 18 h
E. coli UBMS 89-1 Tet M = experiment: microbe, parasite or virus in culture; details: Escherichia coli, UBMS891TETM, 18 h
[3] = system: E. coli MC 4100 TNIOC Tet B; experiment: microbe, parasite or virus in culture; details: Escherichia coli, 18 h
S. aureus UBMS 88-4 = experiment: MIC, agar dilution; details: Staphylococcus aureus, UBMS884, 18 h
E. coli UBMS 90-4 Tet M = experiment: microbe, parasite or virus in culture; details: Escherichia coli, UBMS904TETM, 18 h
S. aureus UBMS 90-3 = experiment: MIC, agar dilution; details: Staphylococcus aureus, UBMS903, 18 h
E. coli PRP1 Tet A = experiment: microbe, parasite or virus in culture; details: Escherichia coli, PRP1TETA, 18 h
S. aureus NEMC 8769 = experiment: MIC, agar dilution; details: Staphylococcus aureus, NEMC8769, 18 h
[4] = system: E. coli UBMS 89-2 Tet sens.; experiment: MIC, agar dilution; details: Escherichia coli, 18 h
Enterococcus 12201 = experiment: MIC, agar dilution; details: Enterococcus, 12201, 18 h
E. coli J2175 = experiment: MIC, agar dilution; details: Escherichia coli, 18 h, read-out: MIC
S. aureus SMITH (MP) = experiment: MIC, agar dilution; details: Staphylococcus aureus, 18 h
E. coli BAJ9003 IMP MUT = experiment: microbe, parasite or virus in culture; details: Escherichia coli, BAJ9003IMPMUT, 18 h
E. coli UBMS 90-5 = experiment: microbe, parasite or virus in culture; details: Escherichia coli, UBMS905, 18 h, E. coli UBMS 90-5; read-out: MIC
[5] = system: E. coli MC 4100 Tet sens.; experiment: MIC, agar dilution; details: Escherichia coli, 18 h
[6] = system: S. aureus UBMS 88-7 Tet K; experiment: microbe, parasite or virus in culture; details: Staphylococcus aureus, UBMS887TETK, 18 h
E. coli UBMS 88-1 Tet B = experiment: microbe, parasite or virus in culture; details: Escherichia coli, UBMS881TETB, 18 h
S. aureus ATCC 29213 = experiment: MIC, agar dilution; details: Staphylococcus aureus, ATCC29213, 18 h, S. aureus ATCC 29213
E. coli #311 (MP) = experiment: MIC, agar dilution; details: Escherichia coli, 18 h
E. coli J3272 Tet C = experiment: microbe, parasite or virus in culture; details: Escherichia coli, J3272TETC, 18 h
[7] = system: S. aureus UBMS 90-1 Tet M; experiment: microbe, parasite or virus in culture; details: Staphylococcus aureus, UBMS901TETM, 18 h
S. aureus IVES 1983 = experiment: MIC, agar dilution; details: Staphylococcus aureus, IVES1983, 18 h
E. coli ATCC 25922 = experiment: MIC, agar dilution; details: Escherichia coli, ATCC25922, 18 h
[8] = system: Ps. aeruginosa ATCC 27853; experiment: MIC, agar dilution; details: Pseudomonas aeruginosa, ATCC27853, 18 h
S. aureus ROSE (MP) = experiment: MIC, agar dilution; details: Staphylococcus aureus, 18 h
E. coli J3272 Tet D = experiment: microbe, parasite or virus in culture; details: Escherichia coli, J3272TETD, 18 h
E. faecalis ATCC 29212 = experiment: MIC, agar dilution; details: Enterococcus faecalis, ATCC29212, 18 h, E. faecalis ATCC 29212; read-out: MIC
[9] = system: S. hemolyticus AVHAH 88-3; experiment: MIC, agar dilution; details: Streptococcus pyogenes, AVHAH883, 18 h
[10] = system: S. aureus UBMS 88-5 Tet M; experiment: microbe, parasite or virus in culture; details: Staphylococcus aureus, UBMS885TETM, 18 h
[11] = Ps. aeruginosa ATCC 27853, read-out: MIC

Row | Structure (SMILES) | MIC (S. marcescens FPOR 8733) | MIC [1] | MIC [2] | MIC (E. coli UBMS 89-1 Tet M) | MIC [3] | MIC (S. aureus UBMS 88-4) | MIC (E. coli UBMS 90-4 Tet M) | MIC (E. coli PRP1 Tet A) | MIC [4] | MIC (E. coli J2175) | MIC (E. coli BAJ9003 IMP MUT) | MIC (E. coli UBMS 90-5) | MIC [5] | MIC [6] | MIC (E. coli UBMS 88-1 Tet B) | MIC (E. coli #311 (MP)) | MIC (E. coli J3272 Tet C) | MIC [7] | MIC (S. aureus IVES 1983) | MIC (E. coli ATCC 25922) | also measured
1 | CN(C)[C@@H]1C(O)=C(C(N)=O)C(=O)[C@@]2(O)C(O)=C3C(=O)c4c(ccc(NC(=O)CN5CCCCC5)c4O)CC3CC12 (stereo partly drawn) [I, [7S-(7alpha,10aalpha)]-N-9-(Aminocarbonyl)-7-(dimethylamino)-5,5a,6,6a,7,10,10a,12-octahydro-1,8,10a,11-tetrahydroxy-10,12-dioxo-1-piperidineacetamide dihydrochloride] | 8 µg/mL | 0.25 µg/mL | 0.5 µg/mL | 0.25 µg/mL | 1 µg/mL | 0.5 µg/mL | 0.5 µg/mL | 1 µg/mL | 0.5 µg/mL | 0.5 µg/mL | 0.12 µg/mL | 0.5 µg/mL | 0.25 µg/mL | 0.5 µg/mL | 1 µg/mL | 0.5 µg/mL | 1 µg/mL | 0.5 µg/mL | 1 µg/mL | 0.5 µg/mL | MIC (S. aureus IVES 2943): 1 µg/mL; MIC (S. aureus UBMS 90-3): 0.25 µg/mL; MIC (S. aureus NEMC 8769; read-out: MIC): 0.5 µg/mL; MIC (Enterococcus 12201): 0.25 µg/mL; MIC (S. aureus SMITH (MP)): 0.25 µg/mL; MIC (S. aureus ATCC 29213; read-out: MIC): 0.5 µg/mL; MIC [8, 11]: > 32 µg/mL; MIC (S. aureus ROSE (MP); read-out: MIC): 4 µg/mL; MIC (E. coli J3272 Tet D): 0.5 µg/mL; MIC (E. faecalis ATCC 29212): 0.25 µg/mL; MIC ([9]; S. hemolyticus AVHAH 88-3, read-out: MIC): 2 µg/mL; MIC [10]: 0.5 µg/mL
2 | CN(C)[C@@H]1C(O)=C(C(N)=O)C(=O)[C@@]2(O)C(O)=C3C(=O)c4c(ccc(NC(=O)CNCc5ccccn5)c4O)CC3CC12 (stereo partly drawn) [N, [4S-(4alpha,12aalpha)]-4-(Dimethylamino)-1,4,4a,5,5a,6,11,12a-octahydro-3,10,12,12a-tetrahydroxy-1,11-dioxo-9-[[[(2-pyridinylmethyl]amino]acetyl]amino]-2-naphthacenecarboxamide dihydrochloride] | > 32 µg/mL | 8 µg/mL | > 32 µg/mL | 16 µg/mL | 32 µg/mL | 8 µg/mL | 16 µg/mL | 32 µg/mL | 32 µg/mL | > 32 µg/mL | 2 µg/mL | 32 µg/mL | 8 µg/mL | > 32 µg/mL | > 32 µg/mL | 32 µg/mL | > 32 µg/mL | 8 µg/mL | > 32 µg/mL | 32 µg/mL | MIC (S. aureus IVES 2943): > 32 µg/mL; MIC (S. aureus UBMS 90-3; S. aureus UBMS 90-3, read-out: MIC): 4 µg/mL; MIC (S. aureus NEMC 8769): 8 µg/mL; MIC (Enterococcus 12201): 8 µg/mL; MIC (S. aureus SMITH (MP); S. aureus SMITH (MP), read-out: MIC): 4 µg/mL; MIC (S. aureus ATCC 29213): 8 µg/mL; MIC [8]: > 32 µg/mL; MIC (S. aureus ROSE (MP)): > 32 µg/mL; MIC (E. coli J3272 Tet D): 32 µg/mL; MIC (E. faecalis ATCC 29212): 4 µg/mL; MIC [9]: > 32 µg/mL; MIC [10]: 8 µg/mL
3 | CC(C(=O)Nc1ccc2c(c1O)C(=O)C1=C(O)[C@]3(O)C(=O)C(C(N)=O)=C(O)[C@@H](N(C)C)C3CC1C2)N1CCCC1 (stereo partly drawn) [P] | 16 µg/mL (≈ 28.8 µM) | 0.5 µg/mL (≈ 0.902 µM) | 4 µg/mL (≈ 7.21 µM) | 0.5 µg/mL (≈ 0.902 µM) | 2 µg/mL (≈ 3.61 µM) | 0.5 µg/mL (≈ 0.902 µM) | 1 µg/mL (≈ 1.8 µM) | 2 µg/mL (≈ 3.61 µM) | 1 µg/mL (≈ 1.8 µM) | 1 µg/mL (≈ 1.8 µM) | 0.25 µg/mL (≈ 0.451 µM) | 0.5 µg/mL (≈ 0.902 µM) | 0.25 µg/mL (≈ 0.451 µM) | 1 µg/mL (≈ 1.8 µM) | 2 µg/mL (≈ 3.61 µM) | 1 µg/mL (≈ 1.8 µM) | 1 µg/mL (≈ 1.8 µM) | 0.5 µg/mL (≈ 0.902 µM) | 1 µg/mL (≈ 1.8 µM) | 1 µg/mL (≈ 1.8 µM) | MIC (S. aureus IVES 2943; S. aureus IVES 2943, read-out: MIC): 2 µg/mL (≈ 3.61 µM); MIC (S. aureus UBMS 90-3): 0.25 µg/mL (≈ 0.451 µM); MIC (S. aureus NEMC 8769): 0.5 µg/mL (≈ 0.902 µM); MIC (Enterococcus 12201; Enterococcus 12201, read-out: MIC): 0.25 µg/mL (≈ 0.451 µM); MIC (S. aureus SMITH (MP)): 0.5 µg/mL (≈ 0.902 µM); MIC (S. aureus ATCC 29213): 0.5 µg/mL (≈ 0.902 µM); MIC [8, 11]: > 32 µg/mL; MIC (S. aureus ROSE (MP); read-out: MIC): 8 µg/mL (≈ 14.4 µM); MIC (E. coli J3272 Tet D): 0.5 µg/mL (≈ 0.902 µM); MIC (E. faecalis ATCC 29212): 0.25 µg/mL (≈ 0.451 µM); MIC [9]: 4 µg/mL (≈ 7.21 µM); MIC [10]: 0.5 µg/mL (≈ 0.902 µM)
